Results reported in US5747661A, “Retinoid-inducible response elements” (Howard Hughes Medical Institute).
“Also recorded” adds a separate entry of the source.

B1: LXRE (ΔMTV) (dsDNA)
DNA 1: CTTGCGGTTCCCAGGGTTTAAATAAGTTCA
DNA 2: TGAACTTATTTAAACCCTGGGAACCGCAAG

Columns and labels:
RXRs = details: from the literature; cited from earlier work
GAL4-RAR = target: T1, GAL4-RAR (Homo sapiens, UniProt P10276); assay: GAL4-receptor chimera ligand activation, GAL4-RAR with TK-MH100x4-LUC in CV1 cells; format: cell-based; details: 10^-5 M 9cRA, 10^-5 M TTNPB, 10^-4 M methoprene acid, FIG. 3c
T1 construct: hRARα 185-462; expressed in transfected cells; host or cells: CV-1
T1 sequence (P10276 185-462): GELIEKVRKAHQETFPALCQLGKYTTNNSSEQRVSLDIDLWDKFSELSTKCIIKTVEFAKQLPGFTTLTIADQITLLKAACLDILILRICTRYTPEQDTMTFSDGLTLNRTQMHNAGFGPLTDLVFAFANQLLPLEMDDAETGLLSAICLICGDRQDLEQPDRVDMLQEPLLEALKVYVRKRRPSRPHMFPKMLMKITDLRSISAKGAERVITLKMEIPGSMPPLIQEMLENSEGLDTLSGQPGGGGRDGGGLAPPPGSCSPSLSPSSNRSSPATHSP
Description: (§1) FIG. 3C illustrates the ligand specificity of the GAL4-receptor chimeras. […] In both 3B and 3C, CV1 cells were cotransfected as described previously with CMX vectors driving expression of the indicated hybrid proteins and the reporter plasmid TK-MH100x4-LUC, which contains four copies of the GAL4 DNA upstream activation sequence. In FIG. 3C, ligands were added as described with reference to FIG. 2. Luciferase activity is expressed as RLUs (relative light units) corrected for transfection efficiency using an internal […] standard and represents the mean of triplicate assays (±SEM).
(§2) The hLXRα cDNA insert was excised from the plasmid pXR2ΔRV with Kpn1 and BamHI and ligated into the expression vectors RSV and CMX. […] The cDNAs encoding the ligand-binding domain (LBD) of each of the receptors were then ligated into the polylinker to create GAL4-LBD fusions.
(§3) Such heterologous system provides an effective means for directly assaying receptor/ligand interactions, even in the presence of endogenous wild-type receptors.

hLXRα = assay: CV-1 cotransfection assay, hLXRα expression plasmid with LXRE luciferase reporter (TK-LXRE3-LUC / TK-LXRE2-LUC); format: cell-based, human; details: for LXRα activation of LXRE-containing luciferase reporter (TK-LXRE3-LUC): CV-1 cells, hLXRα transfected alone, 10^-5 M 9cRA, 10^-5 M TTNPB, 10^-4 M methoprene acid, harvested 36 hours after ligand
Description: (§4) CV-1 cells were maintained at 37° C., 5% CO2 in DMEM containing 5% calf bovine serum (CBS). Transfections were performed in 8-well plates in media containing 5% dextran-charcoal stripped CBS by the calcium phosphate coprecipitation technique as described previously (Mangelsdorf et al., (1990) supra). Eight hours after transfections ligands were delivered to cells at 10^3 -fold dilutions (0.1% vol/vol of solvent in media). Retinoids (gifts from Marcus Boehm at Ligand Pharmaceuticals, Inc.) were manipulated under gold light and stored dark in ethanol or methanol under nitrogen gas at -80° C. Cells were harvested 36 hours after addition of ligand and analyzed for luciferase and β-galactosidase activity using a Dynatech microtiter plate Model ML3000 luminometer and a Model MR5000 spectrophotometer, respectively.
(§5) For most experiments, cotransfection of DNA into mammalian cells was accomplished with 50 ng reporter plasmid, 50 ng RSV- or CMX-βgal, 25 ng of each receptor expression plasmid and pGEM carrier to give 375 ng DNA/well. For controls, the empty CMX vector was used in place of the receptor cDNA. For the GAL4-receptor chimera experiments, 30 ng receptor and 80 ng of reporter plasmid were used. For GAL4 and VP16 chimera interaction assays, 30 ng of GAL4-LXRα and 15 ng of the VP16-RAR or -RXR were used along with 80 ng of the reporter plasmid. All transfection data points were normalized using an internal β-galactosidase marker (Mangelsdorf et al., (1990) supra) and represent the mean of duplicate or triplicate assays.
To identify a potential ligand for the orphan receptor LXRα, a cell-based cotransfection screening assay similar to that used to successfully identify the RXR ligand (see Mangelsdorf et al., (1990) supra; Heyman et al., in Cell68:397-406 (1992)) was employed. Initially an LXR responsive gene was unknown, therefore the preliminary experiments were designed to first identify an LXR-specific DNA binding sequence that could serve as an LXR responsive element (referred to as an LXRE). […] Thus, an assay system was established by transfecting CV-1 cells with an expression plasmid harboring the cDNA for LXRα and the luciferase reporter plasmid TK-LXRE3-LUC (see FIG. 2a). TK-LXRE3-LUC contains three copies of the LXRE defined herein; TK-CRBPII-LUC contains the RXRE from the rat CRBPII promoter (Mangelsdorf et al., (1991) supra)); TK-βRE-LUC contains the RAR response element from the mouse RARβ2 promoter (Sucov et al., (1990) supra). Luciferase activity is expressed in relative light units (RLU) and represents the mean of triplicate assays (±SEM) normalized to βgal as an internal standard.
Thus, expression plasmids for hLXRα, hRXRα, or no receptor (-) were cotransfected into CV1 cells in combination with the reporter plasmids TK-LUC or TK-LXRE2-LUC as indicated. […]

hRXRα [1] = target: T2, hRXRα (Homo sapiens, UniProt P19793); assay: CV1 cotransfection of hRXRα alone with LXRE luciferase reporter; format: cell-based; details: CV1 cells, 25 ng hRXRα; 10^-4 M methoprene acid; FIG. 4
T2 construct: Construction of wild-type receptor inserted into the expression vectors RSV and CMX; expressed in transfected cells; host or cells: CV-1
Description: as §4
as §5, with “All transfection data points were normalized using an internal β-galactosidase marker (Mangelsdorf et al., (1990) supra) and represent the mean of duplicate or triplicate assays.” left out

LXR/RXR heterodimer = target: T3, LXR/RXR heterodimer (Homo sapiens, UniProt P19793); assay: CV1 cotransfection of both hLXRα and hRXRα with LXRE reporter TK-LXRE2-LUC; format: cell-based; details: CV1 cells, 25 ng hLXRα:2.5 ng hRXRα; 10^-4 M methoprene acid; FIG. 4
T3 construct: Construction of wild-type receptor inserted into the expression vectors RSV and CMX; expressed in transfected cells; host or cells: CV-1
Description: Thus, expression plasmids for hLXRα, hRXRα, or no receptor (-) were cotransfected into CV1 cells in combination with the reporter plasmids TK-LUC or TK-LXRE2-LUC as indicated. Cells were then incubated with ethanol control (-) or […] methoprene acid (+) and assayed for luciferase activity as described above. TK-LXRE2-LUC contains two copies of the LXRE. In experiments in which LXR and RXR plasmids were cotransfected together the ratio of the two expression plasmids was 1:0.1 (25 ng hLXRα:2.5 ng hRXRα). In all other experiments were LXR and RXR were added alone, the amount of each receptor expression plasmid was 25 ng.

hRARα = target: T4, hRARα (Homo sapiens, UniProt P10276); assay: CV-1 cotransfection assay with RAR response element luciferase reporter (TK-βRE-LUC); format: cell-based; details: CV1 cells; 10^-5 M TTNPB, 10^-4 M methoprene acid; occurs also without transfected RAR or RXR
T4 construct: Construction of wild-type receptor inserted into the expression vectors RSV and CMX; expressed in transfected cells; host or cells: CV-1
Description: as §4
as §5, with “All transfection data points were normalized using an internal β-galactosidase marker (Mangelsdorf et al., (1990) supra) and represent the mean of duplicate or triplicate assays.” left out

GAL4-LXR = target: T5, GAL4-LXR (Homo sapiens, UniProt Q13133); assay: GAL4-receptor chimera ligand activation, GAL4-LXR with TK-MH100x4-LUC in CV1 cells; format: cell-based; details: 10^-5 M 9cRA, 10^-5 M TTNPB, 10^-4 M methoprene acid, FIG. 3c
T5 construct: hLXRα 166-447; expressed in transfected cells; host or cells: CV-1
T5 sequence (Q13133 166-447): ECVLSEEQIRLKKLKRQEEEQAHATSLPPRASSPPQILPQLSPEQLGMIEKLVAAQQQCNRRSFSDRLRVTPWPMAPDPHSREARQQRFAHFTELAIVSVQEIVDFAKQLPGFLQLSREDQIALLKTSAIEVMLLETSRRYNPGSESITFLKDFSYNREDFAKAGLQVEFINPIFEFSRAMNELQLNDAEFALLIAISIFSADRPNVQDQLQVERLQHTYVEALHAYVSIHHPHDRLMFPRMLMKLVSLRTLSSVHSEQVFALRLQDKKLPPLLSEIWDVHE
Description: as §1
Construction of wild-type receptor inserted into the expression vectors RSV and CMX, have been detailed elsewhere (Gigueere et al., in Cell46:645-652 (1986); Umesono et al., in Cell65:1255-1266 (1991); Mangelsdorf et al., (1990) supra). The hLXRα cDNA insert was excised from the plasmid pXR2ΔRV with Kpn1 and BamHI and ligated into the expression vectors RSV and CMX. Chimeric Gal4-receptor expression plasmids (e.g. CMX-GAL4-LXRα) were constructed by first ligating the GAL4 portion of pSG424 (Sadowski and Ptashne, in Nucleic Acids Res. 17:[…] (1989)) into the HindIII/SacI sites of pCMX (Umesono et al., in Cell 65:1255-1266 (1991)) to create pCMX-GAL4. This vector contains the CMV promoter fused to the coding sequence for GAL4 (1-147), followed by inframe polylinker cloning sites and translational stop codons. The cDNAs encoding the ligand-binding domain (LBD) of each of the receptors were then ligated into the polylinker to create GAL4-LBD fusions.
The following receptor amino acid sequences were used for these constructions and their corresponding DNA sequences ligated into pCMX-GAL4:hLXRα 166-447, hRXRα 203-462 and hRARα 185-462.
To address the possibility that the retinoid response elicited by LXRα was through the direct interaction of ligand with the putative ligand binding domain of LXRα, ligand activation experiments were performed with the GAL4-receptor hybrids. […]

GAL4-RXR = target: T6, GAL4-RXR (Homo sapiens, UniProt P19793); assay: GAL4-receptor chimera ligand activation, GAL4-RXR with TK-MH100x4-LUC in CV1 cells; format: cell-based; details: 10^-5 M 9cRA, 10^-5 M TTNPB, 10^-4 M methoprene acid, FIG. 3c
T6 construct: hRXRα 203-462; expressed in transfected cells; host or cells: CV-1
Description: as §1, §2, §3

hRXRα [2] = target: T2, hRXRα; assay: CV-1 cotransfection assay, hRXRα expression plasmid with RXRE luciferase reporter TK-CRBPII-LUC; format: cell-based; details: CV1 cells, 10^-4 M methoprene acid, FIG. 2d
Description: as §4
as §5, with “All transfection data points were normalized using an internal β-galactosidase marker (Mangelsdorf et al., (1990) supra) and represent the mean of duplicate or triplicate assays.” left out

RARs = details: from the literature; cited from earlier work
LXRα/RXRα heterodimer = LXRα/RXRα heterodimer (Homo sapiens, UniProt Q13133;P19793 Q13133:1-447,P19793:1-462); assay: EMSA; strong complex; supershifted by anti-RXRα; 75 mM KCl, 20 mM Hepes pH 7.4; details: tags: none; coupled in vitro transcription/translation (Promega); label: 32P; HindIII overhangs
Description: (§6) For EMSA experiments, receptor proteins were generated using a coupled in vitro transcription/translation system according to the manufacturer's instructions (Promega). Sequences of double-stranded oligonucleotides were as shown in the figures and text and were synthesized with HindIII overhangs. Binding reactions were performed in a total volume of 20 μl consisting of 75 mM KCl, 20 mM Hepes, pH 7.4, 2 mM DTT, 7.5% glycerol, 0.1% NP-40, 2
(§7) MG poly (dI-dC) (Pharmacia), 40 pmol of a non-specific single-stranded oligonucleotide (for removal of non-specific binding in the lysates), and 2 μl of receptor lysates or unprogrammed (control) lysates. Reactions containing lysates and competing oligonucleotides were incubated for 30 minutes on ice followed by the addition of 40 fmol of ^32P-labeled oligonucleotide probe (labeled by end-filling) and further incubated for 20 minutes at room temperature. Samples were then analyzed on 5% polyacrylamide gels run in 0.5X TBE buffer. For antibody supershifting experiments, 1 μl of anti-hRXRα antiserum (a gift from Jacki Dyck), or non-specific antiserum was added to the reactions after addition of the radiolabeled probe and incubated at room temperature for 10 minutes, followed by gel electrophoresis.

RXRα = RXRα (Homo sapiens, UniProt P19793 P19793:1-462); assay: EMSA; RXRα alone; details: label: 32P; HindIII overhangs
Description: as §6, §7

T2 sequence (P19793 whole entry): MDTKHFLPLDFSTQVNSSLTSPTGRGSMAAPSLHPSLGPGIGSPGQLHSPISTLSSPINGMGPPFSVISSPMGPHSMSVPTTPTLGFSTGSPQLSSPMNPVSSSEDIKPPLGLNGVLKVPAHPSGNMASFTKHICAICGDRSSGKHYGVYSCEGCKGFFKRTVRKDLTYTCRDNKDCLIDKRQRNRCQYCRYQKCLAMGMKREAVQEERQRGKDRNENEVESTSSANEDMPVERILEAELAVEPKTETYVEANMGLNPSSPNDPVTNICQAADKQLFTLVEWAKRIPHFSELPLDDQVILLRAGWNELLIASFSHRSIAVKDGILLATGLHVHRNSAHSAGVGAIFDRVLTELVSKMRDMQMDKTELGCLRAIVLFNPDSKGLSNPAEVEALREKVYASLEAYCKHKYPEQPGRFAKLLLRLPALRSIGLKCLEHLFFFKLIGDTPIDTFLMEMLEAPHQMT
T3 sequence (Q13133 whole entry A196R): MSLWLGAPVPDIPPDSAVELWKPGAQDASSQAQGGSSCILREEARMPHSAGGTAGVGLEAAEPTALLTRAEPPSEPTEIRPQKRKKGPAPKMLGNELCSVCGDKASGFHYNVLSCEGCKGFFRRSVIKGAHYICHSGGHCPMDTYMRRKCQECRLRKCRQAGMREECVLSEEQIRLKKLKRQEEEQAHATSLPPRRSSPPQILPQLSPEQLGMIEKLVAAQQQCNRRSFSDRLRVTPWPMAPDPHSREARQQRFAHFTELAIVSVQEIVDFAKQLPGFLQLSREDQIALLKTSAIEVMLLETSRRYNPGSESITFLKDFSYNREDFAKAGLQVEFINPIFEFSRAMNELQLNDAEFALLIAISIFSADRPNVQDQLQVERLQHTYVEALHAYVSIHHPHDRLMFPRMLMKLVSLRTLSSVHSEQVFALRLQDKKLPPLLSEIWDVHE
T3 sequence (P19793 whole entry): as the sequence (P19793 whole entry) above
Chain of LXRα/RXRα heterodimer (P19793 whole entry, one chain of several): as the sequence (P19793 whole entry) above
Chain of RXRα (P19793 whole entry, one chain of several): as the sequence (P19793 whole entry) above
T6 sequence (P19793 203-462): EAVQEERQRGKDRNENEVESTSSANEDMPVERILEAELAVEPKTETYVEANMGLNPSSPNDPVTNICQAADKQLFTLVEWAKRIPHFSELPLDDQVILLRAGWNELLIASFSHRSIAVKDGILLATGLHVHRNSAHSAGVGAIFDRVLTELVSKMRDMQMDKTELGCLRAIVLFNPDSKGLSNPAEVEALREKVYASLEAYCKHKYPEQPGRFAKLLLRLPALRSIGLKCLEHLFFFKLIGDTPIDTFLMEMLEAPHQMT
T4 sequence (P10276 whole entry): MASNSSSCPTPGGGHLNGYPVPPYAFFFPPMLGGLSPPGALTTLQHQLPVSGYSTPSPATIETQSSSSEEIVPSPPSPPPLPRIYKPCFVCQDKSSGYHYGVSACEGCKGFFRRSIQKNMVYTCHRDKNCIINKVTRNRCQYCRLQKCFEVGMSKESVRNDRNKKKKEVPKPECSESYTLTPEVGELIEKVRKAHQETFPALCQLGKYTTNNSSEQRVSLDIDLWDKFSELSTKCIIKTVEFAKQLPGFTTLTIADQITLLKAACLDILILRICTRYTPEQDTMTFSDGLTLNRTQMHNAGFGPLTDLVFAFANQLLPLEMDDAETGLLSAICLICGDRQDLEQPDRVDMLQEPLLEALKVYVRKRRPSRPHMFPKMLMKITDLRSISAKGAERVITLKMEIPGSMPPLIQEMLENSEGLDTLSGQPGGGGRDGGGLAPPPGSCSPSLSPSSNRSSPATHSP
T4 sequence (P19793 whole entry, further chain): as the sequence (P19793 whole entry) above

| Molecule | Ligand binding / specificity for RXR (RXRs) | Ligand inducible transactivation by GAL4-RAR chimera (GAL4-RAR) | LXRα activation of LXRE-containing luciferase reporter (TK-LXRE3-LUC) (hLXRα) | Ligand inducible transactivation by GAL4-LXR chimera (GAL4-LXR) | Ligand binding / specificity for RAR (RARs) | further results |
| --- | --- | --- | --- | --- | --- | --- |
| COC(C)(C)CCCC(C)C/C=C/C(C)=C/C(=O)O (centres unmarked) [methoprene acid] | RXR-specific | only activates RXR | strongly activated; also recorded: strongly activates transcription | no activation |  | Ligand response of TK-LXRE2-LUC with LXRα alone (hLXRα; CV1 cells, 25 ng hLXRα, methoprene acid, FIG. 4): marked ligand response; Ligand response of TK-LXRE2-LUC with RXRα alone (hRXRα [1]): no response; Retinoid responsive activity of TK-LXRE2-LUC with LXRα and RXRα together (LXR/RXR heterodimer): dramatic synergistic increase; Retinoid response of RAR response element reporter (hRARα): occurs through an RXR homodimer; Ligand inducible transactivation by GAL4-RXR chimera (GAL4-RXR): only activates RXR; Response of RXRE reporter TK-CRBPII-LUC in the presence of RXRα (hRXRα [2]; hRXRα transfected): marked response; Response of RXRE reporter TK-CRBPII-LUC with RARα or LXRα transfected instead of RXRα (hRXRα [2]): not RARα or LXRα |
| C/C(=C\c1ccc(C(=O)O)cc1)c1ccc2c(c1)C(C)(C)CCC2(C)C [TTNPB, (E)-4-[2-(5,6,7,8-tetrahydro-5,5,8,8-tetramethyl-2-napthalenyl) -1-propenyl]benzoic acid] |  |  | no effect | no activation | RAR-specific |  |
| CC1=C(/C=C/C(C)=C/C=C/C(C)=C/C(=O)O)C(C)(C)CCC1 [atRA, All-trans retinoic acid] | ligand for only RARs |  |  |  | ligand for only RARs |  |
| CC1=C(/C=C/C(C)=C\C=C\C(C)=C\C(=O)O)C(C)(C)CCC1 [9cRA, 9-cis retinoic acid] | high affinity ligand for both RARs and RXRs; also recorded: binds to both RXR and RAR | activates both RXR and RAR | strongly activated | no activation | high affinity ligand for both RARs and RXRs; also recorded: binds to both RXR and RAR |  |
| B1 |  |  |  |  |  | binding result (LXRα/RXRα heterodimer): binds; binding result (RXRα): no binding |
